Experimental data: US11174253B2, “Compound and pharmaceutical composition containing the same” (ALPHALA CO., LTD., priority 2017, dated 2021)

Each compound was assayed on hepatocellular carcinoma cell line Hep3B (assay: Growth inhibition of Hep3B cells, 48 hr treatment, Hoechst 33342 nucleus count (GE InCell 2200)). Details: Homo sapiens, Table 5, ratio of number of tumor cells treated with 10 μM compound to non-treated cells.
Type: cell-based
Procedure: The potency of selected compounds was defined by the growth inhibition ability to the hepatocellular carcinoma cell line Hep3B. The Hep3B cells were treated with selected compounds for 48 hr under 37° C., 5% CO2, and 95% relative humidity.
The number of treated cells was determined by GE InCell 2200 system, and treated cells were stained with Hoechst 33342 which can reveal the remained nucleus in culture plate. The proportion of survival cells then were calculated with the ratio of treated/non-treated cells. The growth inhibition/cytotoxic effect of selected compounds were evaluated by the following protocol of NCI-60 screening platform. The human tumor cell lines are plating on a 96 well plate in a fixed density 24 hr prior compound treatment. Compounds with multiple concentrations are then added into each well for further 48 hr incubation. Cell viability is assessed by MTS method and the potency of compound is represented by GI50 and LC50 calculated by MTS result.
Herein, the “Ratio in 10 μM (%)” in the following Tables 1-6 refers to the ratio of the number of tumor cells treated with 10 μM of selected compounds to the number of non-treated tumer cells.

SMILES | viability at 10 µM
CCCCc1ccc(Oc2sc(NC(=O)c3ccc([N+](=O)[O-])s3)nc2-c2ccc(F)cc2)cc1 [Compound 5-65, N-(5-(4-butylphenoxy)-4-(4-fluorophenyl)thiazol-2-yl)-5-nitrothiophene-2-carboxamide] | 43%
CCCCOc1ccc(-c2nc(NC(=O)c3ccc([N+](=O)[O-])s3)sc2Oc2ccccc2F)cc1 [Compound 5-72, N-(4-(4-butoxyphenyl)-5-(2-fluorophenoxy)thiazol-2-yl)-5-nitrothiophene-2-carboxamide] | 43%
CCCCOc1ccc(-c2nc(NC(=O)c3ccc([N+](=O)[O-])s3)sc2Oc2ccc(F)cc2)cc1 [Compound 5-73, N-(4-(4-butoxyphenyl)-5-(4-fluorophenoxy)thiazol-2-yl)-5-nitrothiophene-2-carboxamide] | 49%
CCCc1ccc(-c2nc(NC(=O)c3ccc([N+](=O)[O-])s3)sc2Oc2ccccc2)cc1 [Compound 5-77, 5-nitro-N-(5-phenoxy-4-(4-propylphenyl)thiazol-2-yl)thiophene-2-carboxamide] | 33%
CCCc1ccc(-c2nc(NC(=O)c3ccc([N+](=O)[O-])s3)sc2Oc2ccccc2F)cc1 [Compound 5-78, N-(5-(2-fluorophenoxy)-4-(4-propylphenyl)thiazol-2-yl)-5-nitrothiophene-2-carboxamide] | 33%
CCCCc1ccc(-c2nc(NC(=O)c3ccc([N+](=O)[O-])s3)sc2Oc2ccccc2)cc1 [Compound 5-79, N-(4-(4-butylphenyl)-5-phenoxythiazol-2-yl)-5-nitrothiophene-2-carboxamide] | 31%
CCOc1ccc(-c2nc(N(C)C(=O)c3ccc([N+](=O)[O-])s3)sc2Oc2ccccc2)cc1 [Compound 5-82, N-(4-(4-ethoxyphenyl)-5-phenoxythiazol-2-yl)-N-methyl-5-nitrothiophene-2-carboxamide] | 59%
O=C(Nc1nc(-c2ccc(C(F)(F)F)cc2)c(Oc2ccccc2F)s1)c1ccc([N+](=O)[O-])s1 [Compound 5-83, N-(5-(2-fluorophenoxy)-4-(4-(trifluoromethyl)phenyl)thiazol-2-yl)-5-nitrothiophene-2-carboxamide] | 36%
O=C(Nc1nc(-c2ccc(OC(F)(F)F)cc2)c(Oc2ccccc2)s1)c1ccc([N+](=O)[O-])s1 [Compound 5-84, 5-nitro-N-(5-phenoxy-4-(4-(trifluoromethoxy)phenyl)thiazol-2-yl)thiophene-2-carboxamide] | 34%
CCCCOc1ccc(-c2nc(NC(=O)c3ccc([N+](=O)[O-])s3)sc2Oc2ccc(Br)cc2)cc1 [Compound 5-86, N-(5-(4-bromophenoxy)-4-(4-butoxyphenyl)thiazol-2-yl)-5-nitrothiophene-2-carboxamide] | 24%
CCCCOc1ccc(-c2nc(NC(=O)c3ccc([N+](=O)[O-])s3)sc2Oc2cc(C)c(Br)c(C)c2)cc1 [Compound 5-87, N-(5-(4-bromo-3,5-dimethylphenoxy)-4-(4-butoxyphenyl)thiazol-2-yl)-5-nitrothiophene-2-carboxamide] | 36%
CCCc1ccc(Oc2sc(NC(=O)c3ccc([N+](=O)[O-])s3)nc2-c2ccc(C(C)(C)C)cc2)cc1 [Compound 5-88, N-(4-(4-(tert-butyl)phenyl)-5-(4-propylphenoxy)thiazol-2-yl)-5-nitrothiophene-2-carboxamide] | 36%
CCCCc1ccc(Oc2sc(NC(=O)c3ccc([N+](=O)[O-])s3)nc2-c2ccc(C(C)(C)C)cc2)cc1 [Compound 5-89, N-(4-(4-(tert-butyl)phenyl)-5-(4-butylphenoxy)thiazol-2-yl)-5-nitrothiophene-2-carboxamide] | 36%
CCCCOc1ccc(-c2nc(NC(=O)c3ccc([N+](=O)[O-])s3)sc2Oc2ccc(C(C)(C)C)cc2)cc1 [Compound 5-90, N-(4-(4-butoxyphenyl)-5-(4-(tert-butyl)phenoxy)thiazol-2-yl)-5-nitrothiophene-2-carboxamide] | 48%
CCCCOc1ccc(-c2nc(NC(=O)c3ccc([N+](=O)[O-])s3)sc2Oc2ccc(C#N)cc2)cc1 [Compound 5-91, N-(4-(4-butoxyphenyl)-5-(4-cyanophenoxy)thiazol-2-yl)-5-nitrothiophene-2-carboxamide] | 46%
NCCCCCOc1ccc(-c2nc(NC(=O)c3ccc([N+](=O)[O-])s3)sc2Oc2ccccc2)cc1 [Compound 5-92, N-(4-(4-((5-aminopentyl)oxy)phenyl)-5-phenoxythiazol-2-yl)-5-nitrothiophene-2-carboxamide] | 46%
CCCCOc1ccc(-c2nc(NC(=O)c3ccc([N+](=O)[O-])s3)sc2Oc2ccc(CCC)cc2)cc1 [Compound 5-93, N-(4-(4-butoxyphenyl)-5-(4-propylphenoxy)thiazol-2-yl)-5-nitrothiophene-2-carboxamide] | 45%
CCCCc1ccc(-c2nc(NC(=O)c3ccc([N+](=O)[O-])s3)sc2Oc2ccc(F)cc2)cc1 [Compound 5-94, N-(4-(4-butylphenyl)-5-(4-fluorophenoxy)thiazol-2-yl)-5-nitrothiophene-2-carboxamide] | 32%
CCCOc1ccc(Oc2sc(NC(=O)c3ccc([N+](=O)[O-])s3)nc2-c2ccc(C(C)(C)C)cc2)cc1 [Compound 5-95, N-(4-(4-(tert-butyl)phenyl)-5-(4-propoxyphenoxy)thiazol-2-yl)-5-nitrothiophene-2-carboxamide] | 38%
CC(C)(C)c1ccc(Oc2sc(NC(=O)c3ccc([N+](=O)[O-])s3)nc2-c2ccc(C(C)(C)C)cc2)cc1 [Compound 5-96, N-(5-(4-(tert-butyl)phenoxy)-4-(4-(tert-butyl)phenyl)thiazol-2-yl)-5-nitrothiophene-2-carboxamide] | 47%
CCCCOc1ccc(-c2nc(NC(=O)c3ccc([N+](=O)[O-])s3)sc2Oc2ccc(C(C)(C)CC)cc2)cc1 [Compound 5-98, N-(4-(4-butoxyphenyl)-5-(4-(tert-pentyl)phenoxy)thiazol-2-yl)-5-nitrothiophene-2-carboxamide] | 50%
Cc1cc(Oc2sc(NC(=O)c3ccc([N+](=O)[O-])s3)nc2-c2ccc(C(C)(C)C)cc2)cc(C)c1Br [Compound 5-99, N-(5-(4-bromo-3,5-dimethylphenoxy)-4-(4-(tert-butyl)phenyl)thiazol-2-yl)-5-nitrothiophene-2-carboxamide] | 40%
Cc1cc(Oc2sc(NC(=O)c3ccc([N+](=O)[O-])s3)nc2-c2ccc(F)cc2)cc(C)c1Br [Compound 5-100, N-(5-(4-bromo-3,5-dimethylphenoxy)-4-(4-fluorophenyl)thiazol-2-yl)-5-nitrothiophene-2-carboxamide] | 30%
CCC(C)(C)c1ccc(Oc2sc(NC(=O)c3ccc([N+](=O)[O-])s3)nc2-c2ccc(C(C)(C)C)cc2)cc1 [Compound 5-101, N-(4-(4-(tert-butyl)phenyl)-5-(4-(tert-pentyl)phenoxy)thiazol-2-yl)-5-nitrothiophene-2-carboxamide] | 48%
CCc1ccc(-c2nc(NC(=O)c3ccc([N+](=O)[O-])s3)sc2Oc2ccc(C(C)(C)C)cc2)cc1 [Compound 5-102, N-(5-(4-(tert-butyl)phenoxy)-4-(4-ethylphenyl)thiazol-2-yl)-5-nitrothiophene-2-carboxamide] | 40%
CCc1ccc(-c2nc(NC(=O)c3ccc([N+](=O)[O-])s3)sc2Oc2ccc(C(C)(C)CC)cc2)cc1 [Compound 5-103, N-(4-(4-ethylphenyl)-5-(4-(tert-pentyl)phenoxy)thiazol-2-yl)-5-nitrothiophene-2-carboxamide] | 33%
CCCCc1ccc(-c2nc(NC(=O)c3ccc([N+](=O)[O-])s3)sc2Oc2ccc(C(C)(C)CC)cc2)cc1 [Compound 5-104, N-(4-(4-butylphenyl)-5-(4-(tert-pentyl)phenoxy)thiazol-2-yl)-5-nitrothiophene-2-carboxamide] | 56%
Cc1ccc(Oc2sc(NC(=O)c3ccc([N+](=O)[O-])s3)nc2-c2ccc(C(C)(C)C)cc2)cc1 [Compound 5-105, N-(4-(4-(tert-butyl)phenyl)-5-(p-tolyloxy)thiazol-2-yl)-5-nitrothiophene-2-carboxamide] | 30%
CCCCOc1ccc(-c2nc(NC(=O)c3ccc([N+](=O)[O-])s3)sc2Oc2cc(C)cc(C)c2)cc1 [Compound 5-106, N-(4-(4-butoxyphenyl)-5-(3,5-dimethylphenoxy)thiazol-2-yl)-5-nitrothiophene-2-carboxamide] | 29%

Same assay, conditions: Homo sapiens, Table 6, ratio of number of tumor cells treated with 10 μM compound to non-treated cells

SMILES | viability at 10 µM
Cc1ccc(-c2nc(NC(=O)c3ccc([N+](=O)[O-])s3)sc2-c2cccc([N+](=O)[O-])c2)cc1 [Compound 6-3, 5-nitro-N-(5-(3-nitrophenyl)-4-(p-tolyl)thiazol-2-yl)thiophene-2-carboxamide] | 84%
COc1ccc(-c2sc(NC(=O)c3ccc([N+](=O)[O-])s3)nc2-c2ccc(C)cc2)cc1OC [Compound 6-4, N-(5-(3,4-dimethoxyphenyl)-4-(p-tolyl)thiazol-2-yl)-5-nitrothiophene-2-carboxamide] | 64%
Cc1ccc(-c2nc(NC(=O)c3ccc([N+](=O)[O-])s3)sc2-c2ccc(F)cc2)cc1 [Compound 6-6, N-(5-(4-fluorophenyl)-4-(p-tolyl)thiazol-2-yl)-5-nitrothiophene-2-carboxamide] | 48%
O=C(Nc1nc(-c2ccc(Br)cc2)cs1)c1ccc([N+](=O)[O-])s1 [Compound 6-7, N-(4-(4-bromophenyl)thiazol-2-yl)-5-nitrothiophene-2-carboxamide] | 81%
